Reference: patent publication EP1295874A2, “Retroviral protease inhibiting compounds” (Abbott Laboratories, priority 1995, dated 1997)
Read-outs that look alike come from different tables or passages of the source.

Key:
[1] = biological target: T1, HIV protease (Human immunodeficiency virus type 1 group M subtype B, UniProt P04585); assay: Fluorogenic Assay for Screening Inhibitors of HIV Protease; format: biochemical; conditions: read-out: Percent Inhibition
T1 construct: HIV protease consists of two identical subunits, each of which has 99 amino acid residues
Method: The inhibitory potency of the compound of the invention can be determined by the following method.
The compound of the invention is dissolved in DMSO and a small aliquot further diluted with DMSO to 100 times the final concentration desired for testing. The reaction is carried out in a 6 X 50 mm tube in a total volume of 300 microliters. The final concentrations of the components in the reaction buffer are: 125 mM sodium acetate, 1 M sodium chloride, 5 mM dithiothreitol, 0.5 mg/ml bovine serum albumin, 1.3 µM fluorogenic substrate, 2% (v/v) dimethylsulfoxide, pH 4.5. After addition of inhibitor, the reaction mixture is placed in the fluorometer cell holder and incubated at 30°C for several minutes. The reaction is initiated by the addition of a small aliquot of cold HIV protease. The fluorescence intensity (excitation 340 nm, emmision 490 nM) is recorded as a function of time. The reaction rate is determined for the first six to eight minutes. The observed rate is directly proportional to the moles of substrate cleaved per unit time. The percent inhibition is 100 X (1 - (rate in presence of inhibitor)/(rate in absence of inhibitor)).
Fluorogenic substrate: Dabcyl-Gaba-Ser-Gln-Asn-Tyr-Pro-lle-Val-Gln-EDANS wherein DABCYL = 4-(4-dimethylamino-phenyl)azobenzoic acid, Gaba = γ-aminobutyric acid, and EDANS = 5-((2-aminoethyl)amino)-naphthalene-1-sulfonic acid.

[2] = tested on: HIVIIIB; assay: Antiviral activity (anti-HIV activity) in MT4 cells, MTT readout; format: cell-based; conditions: Human immunodeficiency virus 1, MT4, 120 h, read-out: IC50 (µM, 0% plasma)
Excerpt: (§1) The anti-HIV activity of the compound of the invention can be determined in MT4 cells according to the following procedure. MT4 cells were infected with cell-free supernatant of HIVIIIB (previously frozen with known 50% tissue culture infectious dose (TCID50) at 0.003 multiplicity of infection (MOI) for one hour. After one hour infection, cells were washed twice to remove residual viruses, resuspended in culture media and seeded into 96-well tissue culture plates at 1x10^4 cells per well with various half-log dilutions of compounds. Uninfected cells are included as toxicity and cell controls. RPMI 1640 media (Gibco ) with 10% fetal bovine serum were used as culture media. Various concentrations of human serum (Sigma) 50%, 25% and 12.5% were added to culture media resulting in final concentration of 60%, 35% and 22.5% total serum. All assay plates were incubated in 37 deg. cent. incubator for 5 days. MTT (sigma, 5 mg/ml stock in PBS) was added to all wells at 25 ul per well, incubate for 4 hours. 20%SDS with 0.02 N HCl in water was added at 50 ul per well to lyse cellls. Plates incubated overnight for complete lyses were read on a microtitre plate reader at 570/650 nm wavelengths to determine cell optical density (O.D.). Raw data were analysed for percent inhibition by the following formula: (O.D. test well - O.D. virus control)/(O.D. cell control -O.D. virus control)x100 [formula] The 50% effective concentration (EC50) was calculated by the median effect equation (Chou, 1975,Proc. Int. Cong. Pharmacol. 6th p. 619) to determine the efficacy of compound. The 50% lethal concentration (LC50) was calculated using uninfected MT4 cells.
(§2) Under these conditions, the following data were obtained (n = 4 duplicate determinations: Table 2

[3] = 50% lethal concentration in uninfected MT4 cells (MTT); format: cell-based; conditions: human, read-out: LC50
Excerpt: as §1, §2

[4] = Inhibitor Concentration 0.5 nanomolar

Structure (SMILES)	inhibition at 0.0005 µM [1]	IC50 [2]	CC50 at 120 h [3]	inhibition at 0.0005 µM [1, 4]	inhibition at 0.001 µM ([1]; Inhibitor Concentration 1.0 nanomolar)
Cc1cccc(C)c1OCC(=O)N[C@@H](Cc1ccccc1)[C@@H](O)C[C@H](Cc1ccccc1)NC(=O)[C@H](C(C)C)N1CCNC1=O [Example 1P, (2S, 3S, 5S)-2-(2,6-dimethylphenoxyacetyl) amino-3-hydroxy-5-[2S-(1-imidazolidin-2-onyl)-3-methyl-butanoyl] amino-1,6-diphenylhexane]	92.6%	0.01 µM	41300 nM	–	–
Cc1cccc(C)c1OCC(=O)N[C@@H](Cc1ccccc1)[C@@H](O)C[C@H](Cc1ccccc1)NC(=O)[C@H](C(C)C)N1CCOC1=O [Example 3C, (2S, 3S, 5S)-2-(2,6-Dimethylphenoxyacetyl) amino-3-hydroxy-5-[2S-(3-oxazolidin-2-onyl)-3-methyl-butanoyl] amino-1,6-diphenylhexane]	–	0.025 µM	49500 nM	86.9%	–
CC(C)[C@@H](C(=O)N[C@@H](Cc1ccccc1)C[C@H](O)[C@H](Cc1ccccc1)NC(=O)O[C@H]1CO[C@H]2OCC[C@H]21)N1CCN(C)C1=O [Example 4F, (2S,3S,5S)-2-[(3R, 3aS, 6aR)-Bis-tetrahydrofuranyloxy] amino-3-hydroxy-5-[2S-(3-methyl-1-imidazolidin-2-onyl)-3-methylbutanoyl] amino-1,6-diphenylhexane]	–	0.101 µM	> 100000 nM	49.7%	–
CC(C)[C@@H](C(=O)N[C@@H](Cc1ccccc1)C[C@H](O)[C@H](Cc1ccccc1)NC(=O)O[C@H]1CO[C@H]2OCC[C@H]21)N1CCNC1=O [Example 5, (2S,3S,5S)-2-[(3R,3aS,6aR)-Bis-tetrahydrofuranyloxy] amino-3-hydroxy-5-[2S-(1-imidazolidin-2-onyl)-3-methylbutanoyl] amino-1,6-diphenylhexane]	–	0.368 µM	> 100000 nM	80.8%	–
CC(C)[C@@H](C(=O)N[C@@H](Cc1ccccc1)C[C@H](O)[C@H](Cc1ccccc1)NC(=O)OCc1cncs1)N1CCNC1=O [Example 6F, (2S,3S,5S)-2-(N-((5-Thiazolyl)methoxycarbonyl)amino)-5-((2S-(1-imidazolidin-2-onyl)-3-methyl-butanoyl)-amino)-3-hydroxy-1,6-diphenylhexane]	–	0.193 µM	> 100000 nM	61.4%	–
CC(C)(C)[C@@H](C(=O)N[C@@H](Cc1ccccc1)C[C@H](O)[C@H](Cc1ccccc1)NC(=O)OCc1cncs1)N1CCNC1=O [Example 7B, (2S,3S,5S)-2-(N-((5-Thiazolyl)-methoxycarbonyl)amino)-3-hydroxy-5-(2S-(1-imidazolidin-2-onyl)-3,3-dimethylbutanoyl)amino-1,6-diphenylhexane]	–	0.204 µM	> 100000 nM	67.1%	–
Cc1cccc(C)c1OCC(=O)N[C@@H](Cc1ccccc1)[C@@H](O)C[C@H](Cc1ccccc1)NC(=O)[C@@H](N1CCNC1=O)C(C)(C)C [Example 8]	–	0.019 µM	17800 nM	55.6%	–
Cc1cccc(C)c1OCC(=O)N[C@@H](Cc1ccccc1)[C@@H](O)C[C@H](Cc1ccccc1)NC(=O)[C@H](C(C)C)N1CCNC1=S [Example 9B, (2S,3S,5S)-2-(2,6-Dimethylphenoxyacetyl)amino-3-hydroxy-5-(2S-(1-imidazolidin-2-thionyl)-3-methylbutanoyl)amino-1,6-diphenylhexane]	–	0.272 µM	19300 nM	62.6%	–
Cc1cc(N)cc(C)c1OCC(=O)N[C@@H](Cc1ccccc1)[C@@H](O)C[C@H](Cc1ccccc1)NC(=O)[C@H](C(C)C)N1CCNC1=O [Example 10F, (2S,3S,5S)-2-(4-Amino-2,6-dimethylphenoxyacetyl) amino-3-hydroxy-5-(2S-(1-imidazolidin-2-onyl)-3-methyl-butanoyl) amino-1,6-diphenylhexane]	–	0.047 µM	92000 nM	81%	–
Cc1cc(C)c(OCC(=O)N[C@@H](Cc2ccccc2)[C@@H](O)C[C@H](Cc2ccccc2)NC(=O)[C@H](C(C)C)N2CCNC2=O)c(C)c1 [Example 11B, (2S,3S,5S)-2-(2,4,6-Trimethylphenoxyacetyl) amino-3-hydroxy-5-(2S-(1-imidazolidin-2-onyl)-3-methylbutanoyl) amino-1,6-diphenylhexane]	–	0.19 µM	18200 nM	91.1%	–
Cc1cc(F)cc(C)c1OCC(=O)N[C@@H](Cc1ccccc1)[C@@H](O)C[C@H](Cc1ccccc1)NC(=O)[C@H](C(C)C)N1CCNC1=O [Example 12B, (2S,3S,5S)-2-(4-Fluoro-2,6-dimethylphenoxyacetyl) amino-3-hydroxy-5-(2S-(1-imidazolidin-2-onyl)-3-methyl-butanoyl) amino-1,6-diphenylhexane]	–	0.093 µM	19100 nM	76.8%	–
Cc1ncnc(C)c1OCC(=O)N[C@@H](Cc1ccccc1)[C@@H](O)C[C@H](Cc1ccccc1)NC(=O)[C@H](C(C)C)N1CCNC1=O [Example 13B, (2S,3S,5S)-2-(4,6-Dimethylpyrimidin-5-oxy-acetyl) amino-3-hydroxy-5-(2S-(1-imidazolidin-2-onyl)-3-methyl-butanoyl) amino-1,6-diphenylhexane]	–	–	–	–	56.2%
Cc1ccnc(C)c1OCC(=O)N[C@@H](Cc1ccccc1)[C@@H](O)C[C@H](Cc1ccccc1)NC(=O)[C@@H](N1CCNC1=O)C(C)(C)C [Example 14D, (2S,3S,5S)-2-(2,4-Dimethyl-pyridin-3-oxy-acetyl) amino-3-hydroxy-5-(2S-(1-imidazolidin-2-onyl)-3,3-dimethylbutanoyl) amino-1,6-diphenylhexane]	–	0.053 µM	> 100000 nM	52.7%	–
Cc1ccnc(C)c1OCC(=O)N[C@@H](Cc1ccccc1)[C@@H](O)C[C@H](Cc1ccccc1)NC(=O)[C@H](C(C)C)N1CCNC1=O [Example 15, (2S,3S,5S)-2-(2,4-Dimethyl-pyridin-3-oxy-acetyl) amino-3-hydroxy-5-(2S-(1-imidazolidin-2-onyl)-3-methyl-butanoyl) amino-1,6-diphenylhexane]	–	0.119 µM	> 100000 nM	48%	–
Cc1cccc(C)c1OCC(=O)N[C@@H](Cc1ccccc1)[C@@H](O)C[C@H](Cc1ccccc1)NC(=O)[C@H](C(C)C)N1CCCC1=O [Example 17C, (2S,3S,5S)-2-(2,6-Dimethylphenoxyacetyl) amino-3-hydroxy-5-(2S-(1-pyrrolidin-2-onyl)-3-methyl-butanoyl) amino-1,6-diphenylhexane]	–	0.051 µM	19000 nM	87.2%	–
Cc1cccc(C)c1CCC(=O)N[C@@H](Cc1ccccc1)[C@@H](O)C[C@H](Cc1ccccc1)NC(=O)[C@H](C(C)C)N1CCCNC1=O [Example 20D, (2S,3S,5S)-2-(3-(2,6-Dimethylphenyl)propanoyl) amino-3-hydroxy-5-(2S-(1-tetrahydropyrimidin-2-onyl)-3-methyl-butanoyl) amino-1,6-diphenylhexane]	–	0.283 µM	24100 nM	–	–
CC(C)[C@@H](C(=O)N[C@@H](Cc1ccccc1)C[C@H](O)[C@H](Cc1ccccc1)NC(=O)O[C@@H]1CCS(=O)(=O)[C@@H]1C(C)C)N1CCCNC1=O [Example 22E, (2S,3S,5S)-2-(cis(±)-1,1-dioxo-2-isopropyl-3-tetrahydrothiophenoxy)amino-3-hydroxy-5-(2S-(1-tetrahydropyrimid-2-onyl)-3-methylbutanoyl)amino-1,6-diphenylhexane]	–	–	–	71.8%	–
Cc1cccc(C)c1OCC(=O)N[C@@H](Cc1ccccc1)[C@@H](O)C[C@H](Cc1ccccc1)NC(=O)[C@H](C(C)C)n1ccc(=O)[nH]c1=O [Example 23C, (2S,3S,5S)-2-(2,6-Dimethylphenoxyacetyl) amino-3-hydroxy-5-(2S-(1-dihydropyrimid-2,4-dionyl)-3-methyl-butanoyl) amino-1,6-diphenylhexane]	–	–	–	86%	–
